Data on three compounds can be found in patent US8765786B2, “1-substituted indazole derivative” (Dainippon Sumitomo Pharma Co., Ltd., priority 2012, dated 2014).

Each structure is given as a SMILES string.

The test system of data set [1] is Slc: ddY mice. Description: Novel object recognition test in mice (mORT). In kind it is in vivo. Particulars: for minimum effective dose: administered prior to 1st trial, 2nd trial 24 hours later; for efficacy at higher doses: dose of 0.3 mg/kg, 1.0 mg/kg or 3 mg/kg. The protocol: Slc: ddY mice (25 g to 30 g, male, Japan SLC) can be used in the novel object recognition test wherein the interval between the 1st trial (training) and the 2nd trial (test) correlates with the memory loss for the objects used in the 1st trial, and a significant memory-loss is observed when the 2nd trial is performed 24 hours after the 1st trial. According to the test mechanism, the present compounds were administered prior to the 1st trial, and the enhancement effect on memory in the 2nd trial was evaluated.

The target of data set [2] is T1, hERG (human ether-a-go-go) potassium current (Homo sapiens, UniProt Q12809).
T1 construct: expressed in transfected cells; host or cells: CHO cells
Briefly: hERG inhibition test (whole-cell patch clamp, QPatch HT, CHO cells). In kind it is cell-based. As to conditions: room temperature. The protocol: The hERG (human ether-a-go-go) potassium current in CHO cells which stably express hERG gene was recorded by whole-cell patch clamping technique using an automated patch clamp system, QPatch HT (Sophion Bioscience A/S). Inducing the hERG current, the membrane potential was held at −80 mV in voltage clamp mode, and then depolarized to −50 mV for 20 msec and then +20 mV for 5 sec. Then, the membrane potential was repolarized to −50 mV for 5 sec and the tail current amplitude was measured. The stimulation was given at a frequency of every 15 seconds, and the experiment was carried out at room temperature (22±2° C.) The compound was cumulatively administered to each cell in 4 concentrations, wherein the administration was done over 5 minutes in each concentration. The inhibition percentage of the inhibited current was calculated by comparing the current intensities before and after the compound was given in each concentration. According to Hill equation, each 50% inhibitory concentration was calculated (IC50 [μmol/L]). The test solutions used herein were as follows: extracellular solution (mmol/L): 2 CaCl2, 1 MgCl2, 10 HEPES, 4 KCl, 145 NaCl, 10 glucose,
intracellular solution (mmol/L): […], 1.8 MgCl2, 10 HEPES, 31 KOH, 10 EGTA, 120 KCl, 4 ATP

Data set [3] concerns Slc: Wistar rats. Description: Y-shaped maze test in rats, scopolamine-induced cognitive impairment. In kind it is in vivo. Particulars: 0.6 mg/kg scopolamine HBr s.c. The protocol:
In Y-maze test, 0.6 mg/kg scopolamine HBr (cat#S0929, Sigma Aldrich, Japan) can be subcutaneously administered to Slc: Wistar rats (280 g to 300 g, male, Japan SLC) to cause cognitive impairment and decrease the percentage of alternation behavior. According to the test mechanism, the present compounds were treated prior to the administration of scopolamine, and the improvement effect on cognitive impairment was evaluated.

Data set [4] addresses T2, human α7 nAChR (Homo sapiens, UniProt P36544).
T2 construct: expressed in transfected cells; host or cells: GH4C1 cells derived from rat pituitary (ATCC CCL-82.2)
Briefly: Evaluation of PAM activity with human α7 nACh receptor stably expressing cells (aequorin luminescence, FDSS7000). As to conditions: test compound 10 μmol/L; ACh added at EC20; ratio of RLU (Max-Min) of test wells to control wells; read-out: α7PAM (%) @ 10 μmol/L. In kind it is cell-based. A digest of the protocol:
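PAM activity defined as RLU (Max-Min) of compound wells over control wells, from 465 nm aequorin luminescence tracked 138 s after ACh challenge. Host: GH4C1 (rat pituitary) stably co-expressing human α7 nAChR and aequorin, pre-loaded 4 h with 4 μmol/L luminescent substrate.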

Data set [5] in a line: Rat PK test. Particulars: plasma, rats, intravenous and oral administration. It counts as in vivo. The protocol: The present compound was administered intravenously in saline solution or orally in methylcellulose solution to 7 weeks old rats, and their blood was collected according to the following schedule:
(intravenous administration) 5 minutes, 15 minutes, 30 minutes, 1 hour, 2 hours, 4 hours, 6 hours and 24 hours after the administration
(oral administration) 15 minutes, 30 minutes, 1 hour, 2 hours, 4 hours, 6 hours and 24 hours after the administration
The collected blood was centrifuged at 3000 rpm for 10 minutes in a refrigerated centrifuge set at 4° C. The obtained plasma was measured with a HPLC to give a time curve of plasma level, thereby calculating the pharmacokinetic parameters.

A short description of data set [6]: Measurement of brain penetration. It counts as in vivo. As to conditions: LC-MS/MS of plasma and brain homogenates; read-out: concentration ratio of the brain to the plasma. The source says: The plasma and brain homogenates were deproteinized with methanol and then centrifuged. The supernatant was filtered, and the obtained sample was quantified with LC-MS/MS to calculate the concentration of the plasma and brain.

Data set [7] can be described thus: Measurement of protein binding ratio (equilibrium dialysis). It counts as in vitro ADME, human. In general terms: In equilibrium dialysis only unbound substance equilibrates across the membrane.

T1 sequence (Q12809 whole entry): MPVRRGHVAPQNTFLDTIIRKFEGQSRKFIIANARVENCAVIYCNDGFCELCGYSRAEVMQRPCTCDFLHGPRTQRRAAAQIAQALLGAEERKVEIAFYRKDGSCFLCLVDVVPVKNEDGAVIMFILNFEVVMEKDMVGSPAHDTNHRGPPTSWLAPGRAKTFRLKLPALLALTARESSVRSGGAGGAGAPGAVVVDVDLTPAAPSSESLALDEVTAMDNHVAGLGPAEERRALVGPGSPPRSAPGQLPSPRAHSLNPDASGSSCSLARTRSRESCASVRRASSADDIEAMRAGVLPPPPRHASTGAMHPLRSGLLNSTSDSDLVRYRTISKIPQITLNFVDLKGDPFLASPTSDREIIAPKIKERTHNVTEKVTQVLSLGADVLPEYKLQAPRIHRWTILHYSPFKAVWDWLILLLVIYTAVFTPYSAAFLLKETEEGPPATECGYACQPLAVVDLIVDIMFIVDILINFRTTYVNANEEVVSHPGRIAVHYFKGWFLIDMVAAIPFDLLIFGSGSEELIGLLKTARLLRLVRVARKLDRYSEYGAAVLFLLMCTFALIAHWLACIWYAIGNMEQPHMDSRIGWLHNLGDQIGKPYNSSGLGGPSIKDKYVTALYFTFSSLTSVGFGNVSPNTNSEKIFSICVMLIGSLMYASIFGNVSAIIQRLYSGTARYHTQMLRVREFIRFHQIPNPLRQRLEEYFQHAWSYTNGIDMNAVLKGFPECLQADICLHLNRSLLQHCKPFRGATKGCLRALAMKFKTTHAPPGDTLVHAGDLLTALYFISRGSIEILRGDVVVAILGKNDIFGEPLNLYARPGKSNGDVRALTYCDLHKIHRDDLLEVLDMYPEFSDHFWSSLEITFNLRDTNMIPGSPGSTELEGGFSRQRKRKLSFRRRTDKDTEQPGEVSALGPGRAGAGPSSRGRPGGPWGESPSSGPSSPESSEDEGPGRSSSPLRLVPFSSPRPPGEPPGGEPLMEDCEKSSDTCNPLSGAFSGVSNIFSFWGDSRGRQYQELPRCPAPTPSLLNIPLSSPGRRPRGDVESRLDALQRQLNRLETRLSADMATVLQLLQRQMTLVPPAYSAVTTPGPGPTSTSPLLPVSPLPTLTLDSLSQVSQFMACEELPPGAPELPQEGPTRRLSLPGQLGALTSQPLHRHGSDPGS
T2 sequence (P36544 23-502): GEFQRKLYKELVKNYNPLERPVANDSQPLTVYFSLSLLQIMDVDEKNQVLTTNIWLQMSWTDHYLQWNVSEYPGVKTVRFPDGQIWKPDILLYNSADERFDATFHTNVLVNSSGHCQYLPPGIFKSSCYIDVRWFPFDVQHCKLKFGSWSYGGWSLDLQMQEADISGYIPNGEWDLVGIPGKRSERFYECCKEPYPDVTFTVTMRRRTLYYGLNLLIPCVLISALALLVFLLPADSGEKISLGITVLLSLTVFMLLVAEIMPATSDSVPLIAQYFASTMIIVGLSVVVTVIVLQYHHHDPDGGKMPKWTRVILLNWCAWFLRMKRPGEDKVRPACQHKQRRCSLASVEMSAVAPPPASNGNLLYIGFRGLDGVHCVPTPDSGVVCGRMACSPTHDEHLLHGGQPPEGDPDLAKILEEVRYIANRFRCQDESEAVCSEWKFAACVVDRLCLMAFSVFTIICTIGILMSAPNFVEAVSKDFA

For `CO[C@H]1CC[C@H](NC(=O)N2CCC(n3ncc4cc(C5CC5)ccc43)CC2)CC1` [Example 74, 4-(5-cyclopropyl-1H-indazol-1-yl)-N-(trans-4-methoxycyclohexyl)piperidine-1-carboxamide], in data set [1], the minimum effective dose worked out at 0.1 mg/kg and the “efficacy at higher doses” value was “efficacy did not decrease”. In addition, in data set [2], the 50% inhibitory concentration (IC50) – broadly, the midpoint of a concentration-inhibition curve – was 13.2 µM. In data set [3], the “dose from which cognitive function was significantly improved” value amounted to 0.3 mg/kg.
In the case of `CCc1ccc2c(c1)c(OC(C)C)nn2C1CCN(C(=O)NC2CCOCC2)CC1` [Example 63, 4-(5-ethyl-3-isopropoxy-1H-indazol-1-yl)-N-(tetrahydro-2H-pyran-4-yl)piperidine-1-carboxamide], in data set [1], the “dose at which efficacy was shown” value amounted to 3 mg/kg. In data set [2], this compound registered an IC50 of over 10 µM. Further, in data set [4], the activity at 10 µM was found to be 358%. The “dose from which a tendency to improve cognitive function was shown” value in data set [3] was 0.3 mg/kg.
Consider `CO[C@H]1CC[C@H](NC(=O)N2CCC(n3ncc4cc(C)ccc43)CC2)CC1` [Example 1, N-(trans-4-methoxycyclohexyl)-4-(5-methyl-1H-indazol-1-yl)piperidine-1-carboxamide], for which the bioavailability (commonly dose-corrected exposure relative to a reference, in per cent) in data set [5] was 41%. In data set [1], the minimum effective dose was 0.1 mg/kg and the “efficacy at higher doses” value was “efficacy did not decrease”. The compound also showed an IC50 in data set [2] of 84.3 µM. Further, in data set [6], the Kp was 1.27. Besides, the “dose from which cognitive function was significantly improved” value in data set [3] worked out at 0.3 mg/kg. Further, the “protein binding ratio in the brain” value in data set [7] (brain) was found to be 91.9%. Further, in data set [7] (plasma), the “protein binding ratio in the plasma” value was determined as 84.7%.
